Experimental data published in ChEMBL document CHEMBL5579807, “Development of STING degrader with double covalent ligands” (Bioorg Med Chem Lett, 2024).
Calls of active or inactive are those of the source. The rule behind the calls is not given here.

What was measured:
Format in all cases: cell-based
[1] = biological target: T1, E3 ubiquitin-protein ligase RNF126/Stimulator of interferon genes protein (Homo sapiens) (UniProt Q86WV6+Q9BV68); experiment: PROTAC activity at RNF126/STING in human THP-1 cells assessed as induction of STING degradation upto 30 uM incubated for 24 hrs by Western blot analysis
[2] = biological target: T1, E3 ubiquitin-protein ligase RNF126/Stimulator of interferon genes protein (Homo sapiens); experiment: PROTAC activity at RNF126/STING in human THP-1 cells assessed as induction of STING degradation at 10 uM incubated for 24 hrs by Western blot analysis
[3] = biological target: T1, E3 ubiquitin-protein ligase RNF126/Stimulator of interferon genes protein (Homo sapiens); experiment: PROTAC activity at RNF126/STING in human THP-1 cells assessed as induction of STING degradation at 3 to 30 uM incubated for 6 to 48 hrs by Western blot analysis; conditions: dose 3-30 µM, time 6-48 hrs
[4] = biological target: T1, E3 ubiquitin-protein ligase RNF126/Stimulator of interferon genes protein (Homo sapiens); experiment: PROTAC activity at RNF126/STING in human THP-1 cells assessed as induction of STING degradation at 3 uM incubated for 18 hrs in the presence of MG132 by Western blot analysis
[5] = biological target: Stimulator of interferon genes protein (Homo sapiens) (UniProt Q86WV6); experiment: Inhibtion of STING in 293-Dual hSTING-R232 cells co-expressing interferon beta luciferase reporter assessed as inhibition of interferon response incubated for 16 hrs in presence of cGAMP by luminescence based luciferase gene reporter assay; conditions: dose 1-30 µM
[6] = biological target: T1, E3 ubiquitin-protein ligase RNF126/Stimulator of interferon genes protein (Homo sapiens); experiment: PROTAC activity at RNF126/STING in human THP-1 cells assessed as induction of STING degradation at 3 uM incubated for 18 hrs in the presence of MLN7243 by Western blot analysis
[7] = biological target: T2, Protein cereblon/Stimulator of interferon genes protein (Homo sapiens) (UniProt Q96SW2+Q86WV6); experiment: PROTAC activity at CRBN/STING in human THP-1 cells assessed as induction of STING degradation incubated for 24 to 48 hrs by Western blot analysis; conditions: dose 3-30 µM, time 24-48 hrs
[8] = biological target: T2, Protein cereblon/Stimulator of interferon genes protein (Homo sapiens); experiment: PROTAC activity at CRBN/STING in human THP-1 cells assessed as induction of STING degradation at 3 to 30 uM incubated for 6 hrs by Western blot analysis; conditions: dose 3-30 µM

T1 sequence (Q86WV6 whole entry, looked up): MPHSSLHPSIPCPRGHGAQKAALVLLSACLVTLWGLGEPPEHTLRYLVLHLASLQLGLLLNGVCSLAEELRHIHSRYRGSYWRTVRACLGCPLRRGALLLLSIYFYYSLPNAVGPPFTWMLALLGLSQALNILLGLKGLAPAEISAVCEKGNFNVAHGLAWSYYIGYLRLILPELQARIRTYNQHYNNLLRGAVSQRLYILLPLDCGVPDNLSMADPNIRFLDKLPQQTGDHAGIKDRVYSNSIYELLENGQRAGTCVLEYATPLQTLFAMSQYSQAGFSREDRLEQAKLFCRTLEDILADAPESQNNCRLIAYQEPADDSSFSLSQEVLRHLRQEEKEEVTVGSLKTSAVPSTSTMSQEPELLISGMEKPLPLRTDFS
T1 sequence (Q9BV68 whole entry, looked up): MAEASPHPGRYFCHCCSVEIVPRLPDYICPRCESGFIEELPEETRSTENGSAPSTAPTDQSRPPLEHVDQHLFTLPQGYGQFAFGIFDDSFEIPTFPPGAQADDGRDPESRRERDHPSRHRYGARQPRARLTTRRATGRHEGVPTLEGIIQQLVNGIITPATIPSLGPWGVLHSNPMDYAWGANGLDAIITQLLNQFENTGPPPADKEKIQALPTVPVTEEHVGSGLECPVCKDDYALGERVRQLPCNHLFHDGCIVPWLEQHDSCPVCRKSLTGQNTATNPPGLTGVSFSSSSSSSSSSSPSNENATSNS
T2 sequence (Q86WV6 whole entry, looked up): as the sequence (Q86WV6 whole entry, looked up) above
T2 sequence (Q96SW2 whole entry, looked up): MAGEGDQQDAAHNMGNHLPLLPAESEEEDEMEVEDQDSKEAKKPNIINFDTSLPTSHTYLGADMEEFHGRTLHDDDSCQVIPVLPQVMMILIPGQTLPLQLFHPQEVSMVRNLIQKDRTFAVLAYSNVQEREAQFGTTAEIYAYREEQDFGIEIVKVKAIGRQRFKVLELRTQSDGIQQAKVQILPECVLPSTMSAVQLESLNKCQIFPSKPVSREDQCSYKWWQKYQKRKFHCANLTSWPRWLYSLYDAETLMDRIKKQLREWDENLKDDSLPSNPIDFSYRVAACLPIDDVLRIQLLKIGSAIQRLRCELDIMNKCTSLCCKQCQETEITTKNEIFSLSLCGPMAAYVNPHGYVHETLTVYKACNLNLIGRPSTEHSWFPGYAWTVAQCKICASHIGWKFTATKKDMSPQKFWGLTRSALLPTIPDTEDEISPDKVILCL
Sequence of Stimulator of interferon genes protein (Homo sapiens) (Q86WV6 whole entry): as the sequence (Q86WV6 whole entry, looked up) above

For COc1ccc(C(=O)/C=C/C(=O)Nc2ccc(NC(=O)c3ccc([N+](=O)[O-])o3)cc2)cc1, the Activity [1] was “Active”.
COc1ccc(C(=O)/C=C/C(=O)N2CCN(c3ccc(NC(=O)c4ccc([N+](=O)[O-])o4)cc3)CC2)cc1 was tested, and the Activity [2] was “Active”, the Activity [3] was “Active” and the Activity [4] was “inactive”. For the same compound, the inhibition [5] was “Dose-Dependent Effect” and the Activity [6] was “inactive”.
O=C(/C=C/C(=O)Nc1ccc(NC(=O)c2ccc([N+](=O)[O-])o2)cc1)NCCCCCCNc1cccc2c1C(=O)N(C1CCC(=O)NC1=O)C2=O (stereo not drawn) was tested, and the Activity [7] was “Dose-Dependent Effect” and the Activity [8] was “inactive”.
